Consider 19 compounds from PMC10341786 (International Journal of Molecular Sciences, 2023).

The structures appear in SMILES notation.

One series concerns WNV. The series is described as follows: microbe, parasite or virus in culture. Type of series: cell-based, West Nile virus strain Strix nebulosa-12. The note with it: West Nile virus, Vero, read-out: WNV EC50.
A short description of series [1]: in vitro. The note with it: pig.
A short description of series [2]: in vitro. The note with it: pig. The source holds these as a separate data set.
Series [3] can be described thus: in vitro. The note with it: African green monkey.
A short description of series [4]: in vitro. The following applies: African green monkey. This is another data set of the same source.
A further series concerns TBEV. The series is described as follows: microbe, parasite or virus in culture. Type of series: cell-based, Tick-borne encephalitis virus strain Absettarov. The note with it: Tick-borne encephalitis virus, PEK, read-out: TBEV EC50.

Take `CS(=O)(=O)NC1=NOC2(CCCCCCC2)C1` [3a]: the EC50 (as a rule, the concentration needed to bring the measured effect to its halfway point) in the series on WNV was 31 ± 2 µM; with TBEV it was above 100 µM. Besides, the CC50 in the series “in vitro [1]”, in the series “in vitro [2]”, in the series “in vitro [3]” and in the series “in vitro [4]” was above 50 µM throughout.

As to `O=S(=O)(NC1=NOC2(CCCCCCC2)C1)c1ccccc1` [3c], the EC50 with WNV was 25 ± 7 µM; with TBEV, above 50 µM. Moreover, the CC50 in the series “in vitro [1]”, in the series “in vitro [2]”, in the series “in vitro [3]” and in “in vitro [4]” was above 50 µM each time.

For `Cc1ccc(S(=O)(=O)NC2=NOC3(CCCCCCC3)C2)cc1` [3d], the results for the EC50 in the series with WNV and in the series on TBEV were 14 ± 5 µM and above 50 µM, respectively. For the same compound, the CC50 in “in vitro [1]”, in the series “in vitro [2]”, in “in vitro [3]” and in “in vitro [4]” was above 50 µM in each case.

`Cc1cc(C)c(S(=O)(=O)NC2=NOC3(CCCCCCC3)C2)c(C)c1` [3e]: the results for the EC50 in the series with WNV and with TBEV were 22 ± 4 µM and 18 ± 7 µM, respectively. Further, the CC50 in the series “in vitro [1]”, in the series “in vitro [2]”, in the series “in vitro [3]” and in the series “in vitro [4]” was above 50 µM in each case.

In the case of `O=S(=O)(NC1=NOC2(CCCCCCC2)C1)c1ccc2c(c1)OCCO2` [3f], the EC50 with WNV is 18 ± 6 µM; with TBEV it was above 50 µM. Further, the CC50 in the series “in vitro [1]”, in “in vitro [2]”, in “in vitro [3]” and in the series “in vitro [4]” was above 50 µM in each case.

Turning to `O=S(=O)(NC1=NOC2(CCCCCCC2)C1)c1ccc(F)cc1F` [3g], the EC50 in the series with WNV is 28.4 ± 2.2 µM; in the series with TBEV, above 100 µM. The CC50 in the series “in vitro [1]”, in the series “in vitro [2]”, in the series “in vitro [3]” and in the series “in vitro [4]” was above 50 µM throughout.

On to `O=[N+]([O-])c1ccccc1S(=O)(=O)NC1=NOC2(CCCCCCC2)C1` [3h], for which the EC50 in the series with WNV was found to be 21.5 ± 0.9 µM; with TBEV, 28 ± 7 µM. The CC50 in “in vitro [1]”, in the series “in vitro [2]”, in the series “in vitro [3]” and in “in vitro [4]” was above 50 µM in each case.

In the case of `O=S(=O)(NC1=NOC2(CCCCCCC2)C1)c1cccs1` [3k], the EC50 in the series on WNV was 6.1 ± 1.3 µM; with TBEV, above 100 µM. Besides, the CC50 in the series “in vitro [1]”, in “in vitro [2]”, in the series “in vitro [3]” and in “in vitro [4]” was above 50 µM in each case.

For the compound `O=S(=O)(NC1=NOC2(CCCCCCC2)C1)c1cccnc1` [3l], the results for the EC50 in the series with WNV and with TBEV were 11 ± 7 µM and above 100 µM, respectively. Moreover, the CC50 in “in vitro [1]”, in “in vitro [2]”, in the series “in vitro [3]” and in the series “in vitro [4]” was above 50 µM in each case.

As to `CS(=O)(=O)N(C1=NOC2(CCCCCCC2)C1)S(C)(=O)=O` [4a, N-(Methylsulfonyl)-N-(1-oxa-2-azaspiro[4.7]dodec-2-en-3-yl)methanesulfonamide], the melting point (in general, the temperature, or range, at which the solid turns liquid) was 139 to 141 °C. Besides, in the series on WNV, the EC50 stood at 10 ± 6 µM. In “in vitro [1]”, the CC50 is above 50 µM. This compound also came in with a CC50 in the series “in vitro [2]” above 50 µM. Further, the CC50 in the series “in vitro [3]” was above 50 µM. The same compound came in with a CC50 in the series “in vitro [4]” above 50 µM. Also, the EC50 in the series on TBEV was found to be 27 ± 12 µM.

Consider `O=S(=O)(Cc1ccccc1)N(C1=NOC2(CCCCCCC2)C1)S(=O)(=O)Cc1ccccc1` [4b, N-(Benzylsulfonyl)-1-phenyl-N-(1-oxa-2-azaspiro[4.7]dodec-2-en-3-yl)methanesulfonamide], for which the melting point is 176 to 177 °C. The EC50 in the series on WNV amounted to 16 ± 8 µM. The compound further came in with a CC50 in the series “in vitro [1]” above 50 µM. This compound also came in with a CC50 in “in vitro [2]” above 50 µM. Moreover, the CC50 in the series “in vitro [3]” was above 50 µM. In the series “in vitro [4]”, this compound came in with a CC50 above 50 µM. The EC50 in the series with TBEV was above 50 µM.

`O=S(=O)(c1ccccc1)N(C1=NOC2(CCCCCCC2)C1)S(=O)(=O)c1ccccc1` [4c, N-(Phenylsulfonyl)-N-(1-oxa-2-azaspiro[4.7]dodec-2-en-3-yl)benzenesulfonamide] had a melting point of 139 to 141 °C. Also, the EC50 with WNV was found to be 2.6 ± 1.4 µM. The compound also displayed a CC50 in the series “in vitro [1]” above 50 µM. This compound also came in with a CC50 in the series “in vitro [2]” above 50 µM. This compound also showed a CC50 in the series “in vitro [3]” above 50 µM. The compound further yielded a CC50 in the series “in vitro [4]” above 50 µM. Moreover, the EC50 in the series with TBEV worked out at 9 ± 2 µM.

With `Cc1ccc(S(=O)(=O)N(C2=NOC3(CCCCCCC3)C2)S(=O)(=O)c2ccc(C)cc2)cc1` [4d, 4-Methyl-N-(1-oxa-2-azaspiro[4.7]dodec-2-en-3-yl)-N-tosylbenzenesulfonamide], the melting point lay in the range of 151 to 153 °C. For the same compound, the EC50 in the series with WNV is 3 ± 1.9 µM. In “in vitro [1]”, this compound gave a CC50 above 50 µM. This compound also had a CC50 in “in vitro [2]” above 50 µM. In “in vitro [3]”, this compound showed a CC50 above 50 µM. In “in vitro [4]”, this compound displayed a CC50 above 50 µM. Moreover, the EC50 in the series on TBEV was 21 ± 13 µM.

Turning to `Cc1cc(C)c(S(=O)(=O)N(C2=NOC3(CCCCCCC3)C2)S(=O)(=O)c2c(C)cc(C)cc2C)c(C)c1` [4e, N-(Mesitylsulfonyl)-2,4,6-trimethyl-N-(1-oxa-2-azaspiro[4.7]dodec-2-en-3-yl)benzenesulfonamide], the melting point lay within 180 to 182 °C. In the series with WNV, the EC50 was found to be 4.8 ± 1 µM. In addition, in the series “in vitro [1]”, the CC50 is above 50 µM. The compound further showed a CC50 in “in vitro [2]” above 50 µM. Also, in the series “in vitro [3]”, the CC50 is above 50 µM. Further, the CC50 in “in vitro [4]” is above 50 µM. The EC50 in the series on TBEV stood at 12 ± 7 µM.

On to `O=S(=O)(c1ccc2c(c1)OCCO2)N(C1=NOC2(CCCCCCC2)C1)S(=O)(=O)c1ccc2c(c1)OCCO2` [4f, N-((2,3-Dihydrobenzo[b][1, 4]dioxin-6-yl)sulfonyl)-N-(1-oxa-2-azaspiro[4.7]dodec-2-en-3-yl)-2,3-dihydrobenzo[b][1, 4]dioxine-6-sulfonamide], for which the melting point is 191 to 193 °C. Also, in the series on WNV, the concentration giving a half-maximal response (EC50) was determined as 7.1 ± 1 µM. In the series “in vitro [1]”, this compound registered a CC50 above 50 µM. The CC50 in the series “in vitro [2]” was above 50 µM. In “in vitro [3]”, the CC50 was above 50 µM. The compound also gave a CC50 in “in vitro [4]” above 50 µM. Moreover, the EC50 with TBEV was found to be 13 ± 6 µM.

The compound `O=S(=O)(c1ccc(F)cc1F)N(C1=NOC2(CCCCCCC2)C1)S(=O)(=O)c1ccc(F)cc1F` [4g, N-((2,4-Difluorophenyl)sulfonyl)-2,4-difluoro-N-(1-oxa-2-azaspiro[4.7]dodec-2-en-3-yl)benzenesulfonamide] registered a melting point of 61 to 62 °C. The EC50 with WNV was 9.8 ± 2.6 µM. This compound also yielded a CC50 in “in vitro [1]” above 50 µM. For the same compound, the CC50 in the series “in vitro [2]” was above 50 µM. Also, the CC50 in “in vitro [3]” was above 50 µM. Besides, the CC50 in “in vitro [4]” is above 50 µM. In the series on TBEV, the EC50 was above 50 µM.

For the compound `O=[N+]([O-])c1ccccc1S(=O)(=O)N(C1=NOC2CCCCCCC12)S(=O)(=O)c1ccccc1[N+](=O)[O-]` (centres unmarked) [5h, 2-Nitro-N-((2-nitrophenyl)sulfonyl)-N-(3a,4,5,6,7,8,9,9a-octahydrocycloocta[d]isoxazol-3-yl)benzenesulfonamide], the melting point lay in the range of 153 to 154 °C. In addition, the 50% effective concentration (EC50) with WNV worked out at 17 ± 3 µM. Also, the CC50 in “in vitro [1]” was above 50 µM. This compound also gave a CC50 in “in vitro [2]” above 50 µM. In addition, the concentration for a half-maximal effect (EC50) in the series on TBEV is 12 ± 6 µM.

For `NC(=O)c1nc(F)c[nH]c1=O` [Favipiravir, reference compound], the EC50 in the series on WNV was determined as 102 ± 28 µM. Further, the CC50 in the series “in vitro [2]”, in “in vitro [3]” and in “in vitro [4]” was above 1000 µM in each case.

`Nc1onc(C(=O)OCC23CC4CC(CC(C4)C2)C3)c1CCc1ccccc1` [compound 6, reference compound]: the CC50 in “in vitro [1]”, in “in vitro [2]” and in “in vitro [3]” was above 100 µM each time. In addition, in the series on TBEV, the EC50 was found to be 2.29 ± 0.17 µM.
